Measured values reported in patent US11091472B2, “PI-kinase inhibitors with anti-infective activity” (The Board of Trustees of the Leland Stanford Junior …, priority 2016, dated 2021).

Tests used:
EV71 = EV71 antiviral assay; format: cell-based; conditions: Enterovirus A, Table 5
HRV = experiment: Rhinovirus antiviral assay; format: cell-based; conditions: Human rhinovirus sp.; Table 5
PI4KIIIB = PI4KIIIB (Bos taurus (Bovine), UniProt O02810); experiment: PI4KIIIβ kinase assay (immunoprecipitated HA-tagged enzyme, [γ-32P]-ATP); format: biochemical; conditions: kinase activity
PI3KC2G = PI3KC2G (Homo sapiens (Human), UniProt O75747); experiment: PI3KC2G kinase assay; format: biochemical; conditions: kinase activity
Experimental: PI-kinase assay: Compounds are tested in C.1.1. PI kinase assays as described by Shokat et al., “A membrane capture assay for lipid kinase activity.” Nat. Protoc.
Selected compounds of Table 1 and 2 were prepared and tested for inhibition activity in a variety of kinase assays.

PI3K p110g = PI3K p110g (Homo sapiens (Human), UniProt P48736); experiment: PI3K p110g kinase assay; format: biochemical; conditions: kinase activity
PI4KIIIA = PI4KIIIA (Homo sapiens (Human), UniProt P42356); experiment: PI4KIIIα kinase assay (immunoprecipitated HA-tagged enzyme, [γ-32P]-ATP); format: biochemical; conditions: kinase activity
Cell toxicity (CC50) = format: cell-based; conditions: human, HuH-7 cells

Chain of PI4KIIIB (O02810 whole entry): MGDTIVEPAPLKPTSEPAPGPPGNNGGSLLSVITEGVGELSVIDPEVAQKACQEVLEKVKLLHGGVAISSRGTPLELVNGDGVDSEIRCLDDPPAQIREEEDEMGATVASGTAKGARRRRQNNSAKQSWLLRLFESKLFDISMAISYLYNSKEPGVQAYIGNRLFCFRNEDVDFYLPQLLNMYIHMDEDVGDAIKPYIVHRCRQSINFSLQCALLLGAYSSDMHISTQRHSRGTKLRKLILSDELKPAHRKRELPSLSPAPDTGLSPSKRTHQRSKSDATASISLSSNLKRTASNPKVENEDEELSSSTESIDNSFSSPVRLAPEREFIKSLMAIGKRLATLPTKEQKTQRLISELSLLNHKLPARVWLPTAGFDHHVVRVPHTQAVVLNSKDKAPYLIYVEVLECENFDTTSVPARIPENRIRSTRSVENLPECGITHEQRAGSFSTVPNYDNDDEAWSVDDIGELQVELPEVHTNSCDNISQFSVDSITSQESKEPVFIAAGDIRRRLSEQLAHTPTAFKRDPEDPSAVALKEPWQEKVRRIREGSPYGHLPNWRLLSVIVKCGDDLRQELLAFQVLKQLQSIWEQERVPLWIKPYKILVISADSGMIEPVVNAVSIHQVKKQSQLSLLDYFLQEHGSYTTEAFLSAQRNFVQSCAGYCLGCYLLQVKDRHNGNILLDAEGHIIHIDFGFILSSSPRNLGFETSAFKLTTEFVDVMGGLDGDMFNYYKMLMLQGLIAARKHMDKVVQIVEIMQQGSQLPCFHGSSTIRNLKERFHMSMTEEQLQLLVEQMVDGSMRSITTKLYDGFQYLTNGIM
Chain of PI3K p110g (P48736 whole entry): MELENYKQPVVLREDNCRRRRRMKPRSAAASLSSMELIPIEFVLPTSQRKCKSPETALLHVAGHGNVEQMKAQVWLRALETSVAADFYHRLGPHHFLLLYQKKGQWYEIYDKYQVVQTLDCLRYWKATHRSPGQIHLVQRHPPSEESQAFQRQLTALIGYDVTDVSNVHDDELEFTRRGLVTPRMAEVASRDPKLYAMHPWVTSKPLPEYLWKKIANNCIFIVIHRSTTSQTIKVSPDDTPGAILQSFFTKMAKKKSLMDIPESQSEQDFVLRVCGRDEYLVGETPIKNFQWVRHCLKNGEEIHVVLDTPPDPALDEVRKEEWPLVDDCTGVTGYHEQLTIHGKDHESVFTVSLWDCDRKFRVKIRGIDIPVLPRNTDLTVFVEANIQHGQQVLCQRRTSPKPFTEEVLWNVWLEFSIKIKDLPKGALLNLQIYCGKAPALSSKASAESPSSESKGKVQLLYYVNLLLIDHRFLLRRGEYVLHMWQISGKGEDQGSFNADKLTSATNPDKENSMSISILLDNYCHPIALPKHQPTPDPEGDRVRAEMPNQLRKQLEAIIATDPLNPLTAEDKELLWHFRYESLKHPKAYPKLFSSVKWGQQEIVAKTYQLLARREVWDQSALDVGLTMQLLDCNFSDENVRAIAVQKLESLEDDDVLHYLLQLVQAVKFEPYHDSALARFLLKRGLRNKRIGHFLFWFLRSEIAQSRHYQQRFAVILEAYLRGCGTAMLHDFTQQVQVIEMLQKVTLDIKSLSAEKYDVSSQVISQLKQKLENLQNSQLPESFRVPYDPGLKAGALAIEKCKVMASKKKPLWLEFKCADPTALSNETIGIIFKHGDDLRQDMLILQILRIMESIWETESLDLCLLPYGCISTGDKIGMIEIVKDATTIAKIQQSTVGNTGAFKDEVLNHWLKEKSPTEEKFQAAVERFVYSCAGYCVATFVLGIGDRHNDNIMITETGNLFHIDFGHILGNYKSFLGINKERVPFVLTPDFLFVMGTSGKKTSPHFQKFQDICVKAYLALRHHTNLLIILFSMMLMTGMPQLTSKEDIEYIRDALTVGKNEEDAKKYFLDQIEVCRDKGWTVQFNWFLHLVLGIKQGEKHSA
Chain of PI4KIIIA (P42356 whole entry): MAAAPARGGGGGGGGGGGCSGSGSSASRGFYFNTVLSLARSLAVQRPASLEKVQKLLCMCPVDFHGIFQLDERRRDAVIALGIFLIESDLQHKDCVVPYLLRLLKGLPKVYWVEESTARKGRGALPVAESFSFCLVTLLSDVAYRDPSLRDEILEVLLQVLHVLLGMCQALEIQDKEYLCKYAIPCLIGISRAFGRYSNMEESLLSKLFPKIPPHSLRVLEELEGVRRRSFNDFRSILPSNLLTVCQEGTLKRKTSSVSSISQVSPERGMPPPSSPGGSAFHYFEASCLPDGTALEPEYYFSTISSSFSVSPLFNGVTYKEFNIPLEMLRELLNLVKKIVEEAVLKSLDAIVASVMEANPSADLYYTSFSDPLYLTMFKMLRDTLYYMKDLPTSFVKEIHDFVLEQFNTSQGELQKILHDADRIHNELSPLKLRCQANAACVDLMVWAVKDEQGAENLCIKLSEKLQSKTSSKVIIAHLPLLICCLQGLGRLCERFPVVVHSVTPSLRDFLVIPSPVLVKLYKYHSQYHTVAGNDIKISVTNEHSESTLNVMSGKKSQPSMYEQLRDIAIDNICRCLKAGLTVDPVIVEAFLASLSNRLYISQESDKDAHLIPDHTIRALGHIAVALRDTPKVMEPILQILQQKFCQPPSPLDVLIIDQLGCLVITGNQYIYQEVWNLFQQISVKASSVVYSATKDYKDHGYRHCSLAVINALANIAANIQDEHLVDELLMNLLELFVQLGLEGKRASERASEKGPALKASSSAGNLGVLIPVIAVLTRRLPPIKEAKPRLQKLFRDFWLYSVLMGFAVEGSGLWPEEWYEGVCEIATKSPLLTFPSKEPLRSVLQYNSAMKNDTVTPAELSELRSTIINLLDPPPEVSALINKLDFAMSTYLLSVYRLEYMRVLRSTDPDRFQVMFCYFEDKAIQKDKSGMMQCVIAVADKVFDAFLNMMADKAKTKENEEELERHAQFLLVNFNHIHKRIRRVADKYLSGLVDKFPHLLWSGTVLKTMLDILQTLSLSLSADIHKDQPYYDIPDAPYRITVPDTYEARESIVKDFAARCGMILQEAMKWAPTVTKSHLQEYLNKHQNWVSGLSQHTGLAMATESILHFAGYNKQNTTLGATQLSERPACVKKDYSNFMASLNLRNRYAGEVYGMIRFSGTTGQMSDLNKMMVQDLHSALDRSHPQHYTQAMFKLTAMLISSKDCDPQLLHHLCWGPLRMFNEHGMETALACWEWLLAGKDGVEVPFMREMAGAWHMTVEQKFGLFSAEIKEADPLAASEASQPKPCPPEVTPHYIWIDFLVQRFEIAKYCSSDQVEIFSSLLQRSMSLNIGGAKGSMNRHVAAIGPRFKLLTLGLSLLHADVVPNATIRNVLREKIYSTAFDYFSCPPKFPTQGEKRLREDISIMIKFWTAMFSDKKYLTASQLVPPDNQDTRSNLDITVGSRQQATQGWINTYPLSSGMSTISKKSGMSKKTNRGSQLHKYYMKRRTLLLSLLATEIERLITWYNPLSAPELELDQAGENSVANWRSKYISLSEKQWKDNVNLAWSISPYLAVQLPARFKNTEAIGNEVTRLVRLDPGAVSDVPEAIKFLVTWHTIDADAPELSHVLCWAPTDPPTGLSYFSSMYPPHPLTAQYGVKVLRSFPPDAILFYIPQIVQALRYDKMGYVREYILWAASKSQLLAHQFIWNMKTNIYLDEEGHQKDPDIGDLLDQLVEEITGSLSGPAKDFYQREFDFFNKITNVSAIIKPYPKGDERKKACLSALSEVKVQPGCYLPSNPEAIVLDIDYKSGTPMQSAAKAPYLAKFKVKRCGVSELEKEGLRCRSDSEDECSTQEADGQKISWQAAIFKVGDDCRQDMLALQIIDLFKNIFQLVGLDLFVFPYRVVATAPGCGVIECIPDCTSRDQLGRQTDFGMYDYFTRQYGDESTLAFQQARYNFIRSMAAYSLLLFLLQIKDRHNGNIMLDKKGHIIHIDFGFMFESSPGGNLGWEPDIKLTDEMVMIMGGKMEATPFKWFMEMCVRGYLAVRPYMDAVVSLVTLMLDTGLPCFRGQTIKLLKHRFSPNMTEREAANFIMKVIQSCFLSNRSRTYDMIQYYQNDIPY

Row | Compound | EC50 (EV71) [nM] | EC50 (HRV) [nM] | IC50 (PI4KIIIB) [nM] | further results
1 | COc1ccc(-c2sc(NC(C)C3CCOCC3)nc2C)cc1S(=O)(=O)NC1CCC(OC(C)=O)CC1 (stereo not shown) [Compound S-327] | 1 to 100 | 1 to 100 |  | 
2 | COc1ccc(-c2sc(NC(C)C3CCOCC3)nc2C)cc1S(=O)(=O)Nc1c(F)cncc1F (stereo not shown) [Compound S-333] | 100 to 1000 | 100 to 1000 |  | 
3 | COc1ccc(-c2sc(NC(=O)CC3CCCC3)nc2C)cc1S(=O)(=O)NCCCCO [Compound S-152] |  |  | < 100 | 
4 | COc1ccc(-c2sc(NC(C)C3CCOCC3)nc2C)cc1S(=O)(=O)Nc1ncccc1F (stereo not shown) [Compound S-330] | 100 to 1000 | 1000 to 10000 |  | 
5 | COc1ccc(-c2sc(NCC3CCCCC3)nc2C)cc1S(=O)(=O)NCC1CCCCC1 [Compound S-128] |  |  | 100 to 1000 | IC50 (PI3KC2G): > 10000 nM; IC50 (PI3K p110g): > 10000 nM; IC50 (PI4KIIIA): > 10000 nM
6 | COc1ccc(-c2sc(NCC(C)C)nc2C)cc1S(=O)(=O)N[C@H]1CC[C@H](O)CC1 [Compound S-221] |  |  | < 100 | 
7 | COc1ccc(-c2sc(NC(C)C3CCOCC3)nc2C)cc1S(=O)(=O)Nc1cccc(O)c1 (stereo not shown) [Compound S-320] | 1 to 100 | 1 to 100 |  | 
8 | COc1ncc(-c2sc(NC(=O)CC3CCOCC3)nc2C)cc1S(=O)(=O)Nc1ccc(F)cc1F [Compound S-258] |  |  | 1000 to 10000 | 
9 | COc1ccc(-c2sc(N[C@H](C)C3CCCCC3)nc2C)cc1S(=O)(=O)N[C@@H]1CCNC1 [Compound S-197] |  |  | < 100 | 
10 | COc1ccc(-c2sc(NCC3CCCCC3)nc2C)cc1S(=O)(=O)NC1CC1 [Compound S-127] |  |  | 100 to 1000 | IC50 (PI3KC2G): > 10000 nM; IC50 (PI3K p110g): > 10000 nM; IC50 (PI4KIIIA): > 10000 nM
11 | COc1ccc(-c2sc(NC(C)C3CCOCC3)nc2C)cc1S(=O)(=O)Nc1ccc(O)cc1 (stereo not shown) [Compound S-319] | 1 to 100 | 1 to 100 |  | 
12 | COc1ccc(-c2sc(NCC3CCCCC3)nc2C)cc1S(=O)(=O)Nc1ccccc1F [Compound S-29] |  |  |  | CC50 (Cell toxicity (CC50)): > 10000 nM
13 | COc1ccc(-c2sc(NC(=O)CC3CCCC3)nc2C)cc1S(=O)(=O)N[C@H]1CC[C@H](O)CC1 [Compound S-151] |  |  | < 100 | 
14 | COc1ccc(NS(=O)(=O)c2cc(-c3sc(NC(=O)CC4CCCCC4)nc3C)ccc2OC)c(C)c1 [Compound S-85] |  |  |  | CC50 (Cell toxicity (CC50)): > 10000 nM
15 | COc1ccc(-c2sc(NC(=O)C3CCCC3)nc2C)cc1S(=O)(=O)Nc1ccc(CO)cc1 [Compound S-41] |  |  | < 100 | 
16 | COC(=O)c1ccc(NS(=O)(=O)c2cc(-c3sc(NC(C)C4CCOCC4)nc3C)ccc2OC)cc1 (stereo not shown) [Compound S-324] | 1 to 100 | 1 to 100 |  | 

Row | Compound | EC50 (EV71) [nM] | EC50 (HRV) [nM] | IC50 (PI4KIIIB) [nM] | further results
17 | COc1ccc(-c2sc(NC(C)C3CCOCC3)nc2C)cc1S(=O)(=O)NC1CCNCC1 (stereo not shown) [Compound S-326] | 1 to 100 | 100 to 1000 |  | 
18 | COc1ccc(-c2sc(NC(C)(C)C)nc2C)cc1S(=O)(=O)NC1CCNCC1 [Compound S-219] |  |  | < 100 | 
19 | COc1ccc(-c2sc(NCC3CCCCC3)nc2C)cc1S(=O)(=O)NC1CCN(C2CCCC2)CC1 [Compound S-133] |  |  | < 100 | 
20 | COc1ccc(-c2sc(NCC3CCCCC3)nc2C)cc1S(=O)(=O)NC1CCNCC1 [Compound S-123] |  |  | < 100 | 
21 | COc1ncc(-c2sc(NC(C)C3CCOCC3)nc2C)cc1S(=O)(=O)Nc1ccc(F)cc1Cl (stereo not shown) [Compound S-337] | 1 to 100 | 100 to 1000 |  | 
22 | COc1ccc(NS(=O)(=O)c2cc(-c3sc(NC4CCCCCC4)nc3C)ccc2OC)c(C)c1 [Compound S-89] |  |  |  | CC50 (Cell toxicity (CC50)): > 10000 nM
23 | COc1ccc(-c2sc(NC(=O)CC3CCCC3)nc2C)cc1S(=O)(=O)Nc1ccc(C)nc1 [Compound S-100] |  |  | 100 to 1000 | IC50 (PI3K p110g): > 10000 nM; IC50 (PI4KIIIA): > 10000 nM
24 | COc1ccc(-c2sc(NC(=O)CC3CCOCC3)nc2C)cc1S(=O)(=O)Nc1cccc(C)c1 [Compound S-226] |  |  | < 100 | 
25 | COc1ccc(-c2sc(NC3CCCCC3)nc2C)cc1S(=O)(=O)N[C@H]1CC[C@H](O)CC1 [Compound S-166] |  |  | < 100 | 
26 | COc1ccc(-c2sc(NC(C)C3CCOCC3)nc2C)cc1S(=O)(=O)Nc1cccnc1C (stereo not shown) [Compound S-331] | 1 to 100 | 1 to 100 |  | 
27 | COc1ncc(-c2sc(NC(C)C3CCOCC3)nc2C)cc1S(=O)(=O)Nc1ccccc1Cl (stereo not shown) [Compound S-341] | 1 to 100 | 1 to 100 |  | 
28 | COc1ccc(-c2sc(NC(C)C3CCOCC3)nc2C)cc1S(=O)(=O)Nc1c(F)cccc1F (stereo not shown) [Compound S-321] | 1 to 100 | 1 to 100 |  | 
29 | COc1ccc(-c2sc(NCCC3CCCCC3)nc2C)cc1S(=O)(=O)NC1CCNCC1 [Compound S-202] |  |  | < 100 | 
30 | COc1ccc(-c2sc(N[C@@H](C)C3CCCCC3)nc2C)cc1S(=O)(=O)N[C@H]1CC[C@H](O)CC1 [Compound S-183] |  |  | < 100 | 
31 | COc1ncc(-c2sc(NC(C)C3CCOCC3)nc2C)cc1S(=O)(=O)Nc1ccccc1C (stereo not shown) [Compound S-335] | 1 to 100 | 1 to 100 |  | 
32 | Cc1ccc(-c2sc(NC(=O)CC3CCCC3)nc2C)cc1S(=O)(=O)NC1CCNCC1 [Compound S-188] |  |  | < 100 | 
